The values that follow come from patent publication US10422787B2, “System and method for single molecule detection” (ARIZONA BOARD OF REGENTS on behalf of ARIZONA STATE …, priority 2015, dated 2019).

Experiment [1] deals with cyclic RGD peptide. As to the kind of experiment: Fixed-gap (5 nm) MEMED tunnel chip functionalized with cyclic RGD peptide. The class given is binding. On the set-up: signal in fixed-gap device: dose or concentration left out as unconfirmed. The procedure: A fixed gap tunneling device has significant advantages over STM measurements. […] It is fabricated much as described in our earlier paper. The basic fabrication of the layered device (10 nm Pd, 4 to 5 nm Al2O3 followed by 10 nm Pd, resting on top of a 25 nm SiN substrate and passivated on top with SiO2) was carried out by Norcada Inc. (Edmonton, Alberta). Our original devices had large (micron-scale) openings, but it was desired to restrict the region over which proteins could be captured to dimensions small enough that the capture of multiple molecules in the tunnel junction was unlikely (illustrated schematically by the capture of a single integrin in FIG. 16A). RIE was used to thin the underlying SiN substrate to ˜15 nm, followed by e-beam lithography using a hard mask and further RIE etching (FIG. 16C and Methods). In this way, slits were produced that were 50 to 100 nm across and up to 400 nm long, though the active area was defined by the top electrode widths of about 100 nm (FIG. 16C). After cleaning and functionalization (Methods) the device was immersed in 1 mM phosphate buffer (pH=7.4) with the electrode potentials controlled with respect to an Ag/AgCl electrode coupled via a salt bridge (SB in FIG. 16A).
Our devices often suffer from failure of the passivation layer (SiO2 in FIG. 16B) so that, even in the dilute electrolyte, leakage currents can be substantial (e.g., a few nA, FIG. 16D). […] Thus, these are currents that pass from exposed regions of the top electrodes via the electrolyte, and they are not a consequence of tunneling or electrochemical leakage across the tunnel gap itself. These leakage currents (FIG. 16D) show no distinctive features beyond the shot- and system electronic noise (distributed as a Gaussian, FIG. 16E). When […] α1β4 protein was added (FIG. 16F) the background current falls a little, presumably because of passivation of the exposed electrodes by non-specific adsorption of this protein. Once again, the signal is featureless, displaying the same intrinsic noise as observed in buffer alone (FIG. 16G). (In contrast to the STM measurements, no features have been observed in the fixed-gap devices in any measurement taken in the presence of α1β4.) However, once αVβ3 protein is added to the same device, dramatic jumps occur in the current (FIG. 16H). The background leakage current is reduced by about 20% on addition of the protein, consistent with the passivation effect seen in the macroscopic electrochemical measurements (FIGS. 14B, 14C). The signal jumps up from the baseline to two well defined levels (FIG. 16I) in this case. The states are separated by nearly 0.5 nA, corresponding to ˜1.5 nS conductance (Vt=0.3V). […]

Experiment [2] concerns cyclic RGD peptide. As to the kind of experiment: STM experiment, gold probe functionalized with RGD peptide over bare gold substrate. The format is binding. The note with it: 100 nM protein, starting gap 2.7 nm. From the text: Accordingly, in some embodiments, functionalizing just one of a pair of electrodes generates a unique electrical recognition signal for a corresponding molecule(s). To do this, a scanning tunneling microscope (STM) was used (see STM, FIG. 5A), where a gold probe 51 was functionalized with the RGD peptide 53 via the chemical interaction between the cysteine residue and the gold. The probe was positioned at a set point bias (V) and current (I) such that the apex of the probe was held approximately 2.7 nm above a bare gold substrate, 52. As the probe was pulled away an extra distance ΔZ from the surface, a decaying current could be observed during some of the experiments (e.g., feature 57 in FIG. 5B). However, in the absence of the αVβ3 integrin, no other features were observed, even if fairly high concentrations (e.g., 100 nM) of a protein such as BSA were added to the solution in the STM. Once 100 nM αVβ3 integrin 56 was added to the solution, a new feature appeared as a current peak away from the origin 58 in FIG. 5B.
In contrast to conventional tunneling signals, these signals peak when the probe is some distance away from the surface, signifying that the probe has captured a conductive particle.

Turning to “α4β1: homologous, weakly-binding integrin protein used as a control”, the “signal in fixed-gap device” value with cyclic RGD peptide [1] (protein added) is “featureless”.
In the case of “αvβ3: ~200 kD αVβ3 extracelluar domain of human integrin, target protein bound by cyclic RGD peptide”, in the experiment with cyclic RGD peptide [1] (0.1 nM, tunneling bias 200 mV), the “signal in undiluted Serasub (protein-free serum substitute)” value was determined as 2LS signals were observed. In addition, in the experiment with cyclic RGD peptide [1] (Vt=0.3V, 5 nm gap), the “conductance of current jump” value is on record as ~1.5 nS and the “separation of current states (current jumps)” value is given as ~0.5 nA. Moreover, the “current peak features on probe withdrawal” value in the experiment on cyclic RGD peptide [2] is “many tens of picoamps”.
